Literature values, collected in patent EP4796171A2 (Zealand Pharma A/S, priority 2017, dated 2018).

Details: background statement; cited from earlier work

CC[C@H](C)[C@H](NC(=O)[C@H](Cc1ccccc1)NC(=O)[C@H](CC(=O)O)NC(=O)[C@H](CCCNC(=N)N)NC(=O)[C@H](C)NC(=O)[C@H](C)NC(=O)[C@H](CC(C)C)NC(=O)[C@H](CC(N)=O)NC(=O)[C@H](CC(=O)O)NC(=O)[C@H](CC(C)C)NC(=O)[C@@H](NC(=O)[C@@H](NC(=O)[C@H](CC(N)=O)NC(=O)[C@H](CCSC)NC(=O)[C@H](CCC(=O)O)NC(=O)[C@H](CC(=O)O)NC(=O)[C@H](CO)NC(=O)[C@H](Cc1ccccc1)NC(=O)[C@H](CO)NC(=O)CNC(=O)[C@H](CC(=O)O)NC(=O)CNC(=O)[C@@H](N)Cc1c[nH]cn1)[C@@H](C)O)[C@@H](C)CC)C(=O)N[C@@H](CC(N)=O)C(=O)N[C@@H](Cc1c[nH]c2ccccc12)C(=O)N[C@@H](CC(C)C)C(=O)N[C@H](C(=O)N[C@@H](CCC(N)=O)C(=O)N[C@H](C(=O)N[C@@H](CCCCN)C(=O)N[C@H](C(=O)N[C@H](C(=O)N[C@@H](CC(=O)O)C(=O)O)[C@@H](C)O)[C@@H](C)CC)[C@@H](C)O)[C@@H](C)CC [Teduglutide]
Half-life: about two
